Test results: US11571484B2, “Compositions that target tumor-associated macrophages and methods of use therefor” (Sanford Burnham Prebys Medical Discovery Institute, priority 2017, dated 2023)
Ends that are not written are not given here. FAM = 5(6)-carboxyfluorescein; Ahx = NCCCCCC(=O)O

What was measured:
[1] = system: MEMs in MKN45-P tumors; details: 30 nmoles i.v., 2 h
Procedure: Thirty nmoles of FAM-UNO or FAM-control peptide were injected intravenously into mice and allowed to circulate for 2 h. Mice were then sacrificed and tumor and tissues were analyzed by immunofluorescence using rabbit anti-FAM (green) and rat anti-CD206 (red) antibodies, and counterstained with DAPI. […] The metastases were induced by i.v. inoculation of B16F10 melanoma cells. […] Blue: DAPI. Representative fields from multiple sections (n≥3) prepared from at least 3 tumors are shown. Scale bar: 50 μm. Images shown are representative fields from multiple sections (≥3) prepared from at least 3 tumors (n≥3 mice). The graphs show mean+SEM of FAM signal quantified as described in Materials and Methods.
Tumor models were induced according to protocols approved by the Estonian Ministry of Agriculture, Committee of Animal Experimentation (permit #48). For the 4T1 breast model, 8-week old female Balb/c mice were injected in the mammary fat pad with 10^6 cells dispersed in 50 μL of PBS. For homing studies, mice were used 10 days later, when the tumor had reached ˜150 mm^3. For MCF-7 breast model, 8-week old female nude mice were implanted with an estrogen pellet, and 1 week later inoculated with 5×10^6 MCF-7 cells in 100 μL of cold Matrigel (BD Biosciences, CA, USA). Mice were used for homing studies three weeks later (tumor volume˜150 mm^3). For the metastatic gastric carcinoma, 10^6 MKN45-P cells in PBS were injected intraperitoneally in 8-week old female nude mice. Mice were used for homing studies two weeks later. For the metastatic melanoma model, 2×10^5 B16F10 cells were injected intravenously in 100 μL of PBS in C57 BL6 mice. The mice were used for homing studies 10 days after. […]
For free peptide homing studies, mice were injected intravenously with 30 nmoles of FAM-peptides in 100 μL of PBS. […] FAM was detected using Rabbit anti-FITC (Invitrogen, CA, USA. Catalog # A-889) at a dilution of 1/100 and using Alexa Fluor-546 anti-rabbit antibody (Invitrogen, Ca, USA. Catalog # A-11035) at a dilution of 1/200.

[2] = system: sentinel lymph node; assay: Ex vivo organ imaging after i.p. injection in 4T1 tumor-bearing mice; parameters: species or system mouse; details: 30 nmoles i.p., 2 h, signal normalized to tissue weight, ratio tissue/kidney
Procedure: A, FAM-UNO and FAM-LyP-1 were injected i.p. at doses of 30 nmoles in 4T1 tumor-bearing mice. Peptides were allowed to circulate for two h, mice were then sacrificed, and the organs were collected and imaged with the live imaging system MX3 Art Optix in the FITC channel with laser excitation. B, The signal in each organ was quantified, normalized to the tissue weight and the ratio tissue/kidney was graphed in bar graph. LyP-1 is a peptide that targets p32 protein on the surface of activated macrophages. Results from n=3 mice. Bars of panel B represent mean+SEM.

FAM-UNO: FAM-labeled UNO peptide CSPGAKVRC (SEQ ID NO: 1); 5(6)-carboxyfluorescein with 6-aminohexanoic acid spacer at the N-terminus ({FAM-Ahx}-CSPGAKVRC; cysteine pairing not given here)
accumulation in MEMs / CD206+ cells [1]: accumulated in MEMs | accumulation of FAM in the sentinel lymph node versus FAM-LyP-1 [2]: significantly higher accumulation of the FAM in the sentinel lymph node
